The values below come from ChEMBL document CHEMBL5058564, “EUbOPEN Chemogenomics Library 2 (Incucyte)” (2022).

Holding throughout (format): toxicity, cell-based
One data set relates to HEK-293T. The data set can be described thus: Incucyte cell viability with HEK293T. The following applies: human, 10 µM, compound concentration 10 uM.
Another data set deals with Fibroblast. The data set can be described thus: Incucyte cell viability with human fibroblast. To be noted: 10 µM, compound concentration 10 uM.
A further data set has as its system U2OS. The data set can be described thus: Incucyte cell viability with U2OS. To be noted: human, 10 µM, compound concentration 10 uM.
Setting [1] is: 0 h, replicate number 1, timepoint 0 hours.
[2] abbreviates: 0 h, replicate number 2, timepoint 0 hours.
Setting [3] is: 6 h, replicate number 1, timepoint 6 hours.
The mark [4] stands for this setting: 12 h, replicate number 2, timepoint 12 hours.
[5] abbreviates: 18 h, replicate number 2, timepoint 18 hours.
Where [6] appears, read: 6 h, replicate number 2, timepoint 6 hours.
Setting [7] is: 12 h, replicate number 1, timepoint 12 hours.
Setting [8] is: 24 h, replicate number 1, timepoint 24 hours.
[9] abbreviates: 24 h, replicate number 2, timepoint 24 hours.
Note: unitless GR value; below 1 slowed growth and below 0 cell loss.

In the case of `CCCCC[C@H](O)/C=C/[C@H]1[C@H](O)CC(=O)[C@@H]1CCCCCCC(=O)O` [ALPROSTADIL], the “Growth Rate” value in the data set on HEK-293T (setting [1]) is -0.15; in the data set with HEK-293T (setting [2]), -0.14; in the data set with HEK-293T (setting [3]), 0.92; with HEK-293T (setting [4]), 1; in the data set with HEK-293T (setting [5]), 0.94; in the data set on Fibroblast (setting [1]), -0.23. Further, the “Growth Rate” value in the data set on Fibroblast (setting [2]) is given as 0.17; with U2OS (setting [1]), 0.29; in the data set on U2OS (setting [2]), -1; in the data set with U2OS (setting [3]), -0.08; in the data set on U2OS (setting [6]) it was 0.85; in the data set with U2OS (setting [7]), 0.28. Also, the “Growth Rate” value is 0.88 with U2OS (setting [4]); 0.53 with U2OS (18 h, replicate number 1, timepoint 18 hours); 0.83 with U2OS (setting [5]); 0.85 with U2OS (setting [8]); 0.97 with U2OS (setting [9]).

In the case of `CN1CCc2cc(Cl)c(O)cc2[C@@H](c2ccccc2)C1.Cl`, the “Growth Rate” value in the data set with HEK-293T (setting [2]) is listed as 0.66; in the data set with HEK-293T (setting [6]) it was 0.46; in the data set with HEK-293T (setting [4]) it was 0.71; in the data set with Fibroblast (setting [3]) it was -0.06; in the data set with Fibroblast (setting [7]), 1; in the data set on Fibroblast (setting [8]), 0.88. The “Growth Rate” value with U2OS (setting [2]) was -1; in the data set with U2OS (setting [6]), 0.49; in the data set on U2OS (setting [5]) it was 0.86; in the data set with U2OS (setting [9]), 0.95.
